Test results from patent US12435092B2, “Substituted imidazo[1,2-A]quinazolines as inhibitors of PARG” (858 Therapeutics, Inc., priority 2022, dated 2025).

Target: T1, cellular PARG (Homo sapiens, UniProt Q86W56)
T1 construct: endogenous in cells; host or cells: HeLa
Test: Nuclear PAR accumulation assay (immunofluorescence high-content imaging)
Type: cell-based
Conditions: HeLa cells, 1 hour compound treatment then MMS 50 μg/mL for an additional hour
Summary of the method: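 HeLa cells pretreated 1 h at 37 °C with compound, then 1 h with 50 μg/mL MMS (final), methanol-fixed and immunostained for PAR with DAPI nuclear counterstain. Nuclear PAR intensity and percent PAR-positive cells quantified by high-content imaging (≥1,000 cells/well). IC50 by four-parameter logistic fit, normalized to 0.1% DMSO and reference-compound controls.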

T1 sequence (Q86W56 whole entry): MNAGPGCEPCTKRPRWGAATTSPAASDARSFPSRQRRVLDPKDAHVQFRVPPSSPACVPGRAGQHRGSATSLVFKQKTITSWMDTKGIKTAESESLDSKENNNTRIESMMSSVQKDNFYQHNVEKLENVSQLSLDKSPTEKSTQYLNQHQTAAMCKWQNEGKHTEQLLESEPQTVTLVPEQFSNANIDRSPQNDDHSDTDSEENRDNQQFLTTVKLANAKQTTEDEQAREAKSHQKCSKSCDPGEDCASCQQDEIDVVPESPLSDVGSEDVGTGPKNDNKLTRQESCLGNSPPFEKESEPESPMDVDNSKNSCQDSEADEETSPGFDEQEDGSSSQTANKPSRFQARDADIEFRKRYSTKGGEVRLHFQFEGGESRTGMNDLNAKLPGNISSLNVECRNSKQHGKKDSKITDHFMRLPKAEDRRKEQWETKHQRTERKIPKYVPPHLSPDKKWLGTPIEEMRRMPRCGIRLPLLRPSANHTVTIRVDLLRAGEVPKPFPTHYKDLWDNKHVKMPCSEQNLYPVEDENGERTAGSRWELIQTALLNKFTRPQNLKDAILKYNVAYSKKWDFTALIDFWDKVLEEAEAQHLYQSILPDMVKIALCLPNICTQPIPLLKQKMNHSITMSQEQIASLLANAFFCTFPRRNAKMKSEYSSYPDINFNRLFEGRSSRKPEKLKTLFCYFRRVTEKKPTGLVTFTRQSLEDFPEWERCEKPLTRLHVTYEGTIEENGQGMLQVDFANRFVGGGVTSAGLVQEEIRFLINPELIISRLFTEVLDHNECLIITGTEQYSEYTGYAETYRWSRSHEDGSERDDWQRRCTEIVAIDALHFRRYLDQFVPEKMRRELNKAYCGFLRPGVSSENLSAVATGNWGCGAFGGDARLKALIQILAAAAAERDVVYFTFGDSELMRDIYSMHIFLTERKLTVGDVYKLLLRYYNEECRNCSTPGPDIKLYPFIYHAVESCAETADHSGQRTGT

Row | Compound | IC50 [nM]
1 | C[C@@H]1CN=C2N(Cc3cnn(C)c3)C(=O)c3cc(S(=O)(=O)NC4(C)CC4)cc(N4CCN(C(=O)N(C)C)CC4)c3N21 [Example 130, (R)—N,N-dimethyl-4-(1-methyl-4-((1-methyl-1H-pyrazol-4-yl)methyl)-7-(N-(1-methylcyclopropyl)sulfamoyl)-5-oxo-1,2,4,5-tetrahydroimidazo[1,2-a]quinazolin-9-yl)piperazine-1-carboxamide] | ≤ 100
2 | C[C@@H]1CN=C2N(Cc3cnn(C)c3)C(=O)c3cc(S(=O)(=O)NC4(C)CC4)cc(C4=CCN(C)CC4)c3N21 [Example 131, (R)-1-methyl-9-(1-methyl-1,2,3,6-tetrahydropyridin-4-yl)-4-((1-methyl-1H-pyrazol-4-yl)methyl)-N-(1-methylcyclopropyl)-5-oxo-1,2,4,5-tetrahydroimidazo[1,2-a]quinazoline-7-sulfonamide] | ≤ 100
3 | C[C@@H]1CN=C2N(Cc3cnn(C)c3)C(=O)c3cc(S(=O)(=O)NC4(C)CC4)cc(-c4ccc(F)nc4)c3N21 [Example 135, (R)-9-(6-fluoropyridin-3-yl)-1-methyl-4-((1-methyl-1H-pyrazol-4-yl)methyl)-N-(1-methylcyclopropyl)-5-oxo-1,2,4,5-tetrahydroimidazo[1,2-a]quinazoline-7-sulfonamide] | ≤ 100
4 | C[C@@H]1CN=C2N(Cc3cnn(C)c3)C(=O)c3cc(S(=O)(=O)NC4(C)CC4)cc(-c4ccc(F)cc4)c3N21 [Example 136, (R)-9-(4-fluorophenyl)-1-methyl-4-((1-methyl-1H-pyrazol-4-yl)methyl)-N-(1-methylcyclopropyl)-5-oxo-1,2,4,5-tetrahydroimidazo[1,2-a]quinazoline-7-sulfonamide] | ≤ 100
5 | [2H]C([2H])(c1cnn(C)c1)N1C(=O)c2cc(S(=O)(=O)NC3(C)CC3)cc(Br)c2N2C1=NC[C@H]2C [Example 137, (R)-9-bromo-1-methyl-4-((1-methyl-1H-pyrazol-4-yl)methyl-d2)-N-(1-methylcyclopropyl)-5-oxo-1,2,4,5-tetrahydroimidazo[1,2-a]quinazoline-7-sulfonamide] | ≤ 100

Continued, values first:

Row | IC50 [nM] | Compound
6 | ≤ 100 | C[C@@H]1CN=C2N(Cc3cnn(C)c3)C(=O)c3cc(S(=O)(=O)NC4(C)CC4)cc(Br)c3N21 [Example 129, (R)-9-bromo-1-methyl-4-((1-methyl-1H-pyrazol-4-yl)methyl)-N-(1-methylcyclopropyl)-5-oxo-1,2,4,5-tetrahydroimidazo[1,2-a]quinazoline-7-sulfonamide]
7 | ≤ 100 | [2H]C([2H])(c1cnn(C)c1)N1C(=O)c2cc(S(=O)(=O)NC3(C)CC3)cc(C)c2N2C1=NC[C@H]2C [Example 132, (R)-1,9-dimethyl-4-((1-methyl-1H-pyrazol-4-yl)methyl-d2)-N-(1-methylcyclopropyl)-5-oxo-1,2,4,5-tetrahydroimidazo[1,2-a]quinazoline-7-sulfonamide]
8 | ≤ 100 | C[C@@H]1CN=C2N(Cc3cnn(C)c3)C(=O)c3cc(S(=O)(=O)NC4(C)CC4)cc(C4=CCOCC4)c3N21 [Example 133, (R)-9-(3,6-dihydro-2H-pyran-4-yl)-1-methyl-4-((1-methyl-1H-pyrazol-4-yl)methyl)-N-(1-methylcyclopropyl)-5-oxo-1,2,4,5-tetrahydroimidazo[1,2-a]quinazoline-7-sulfonamide]
9 | ≤ 100 | [2H]C([2H])(c1cnn(C)c1)N1C(=O)c2cc(S(=O)(=O)NC3(C)CC3)cc(C(F)(F)F)c2N2C1=NC[C@H]2C [Example 134, (R)-1-methyl-4-((1-methyl-1H-pyrazol-4-yl)methyl-d2)-N-(1-methylcyclopropyl)-5-oxo-9-(trifluoromethyl)-1,2,4,5-tetrahydroimidazo[1,2-a]quinazoline-7-sulfonamide]
10 | 100 to 1000 | C[C@@H]1CN=C2N(Cc3cnn(C)c3)C(=O)c3cc(S(=O)(=O)NC4(C)CC4)cc(C#N)c3N21 [Example 138, (R)-9-cyano-1-methyl-4-((1-methyl-1H-pyrazol-4-yl)methyl)-N-(1-methylcyclopropyl)-5-oxo-1,2,4,5-tetrahydroimidazo[1,2-a]quinazoline-7-sulfonamide]
